From patent US8865756B2, “Inhibitors of HCV NS5A” (Presidio Pharmaceuticals, Inc., priority 2008, dated 2014)

System: HCV 1b_Huh-Luc/Neo-ET cell line persistently expressing a bicistronic genotype 1b replicon in Huh 7 cells
Assay: HCV replicon assay (luciferase readout)
Assay type: cell-based
Conditions: Hepatitis C virus, Huh-7, 72 h, read-out: Inhibition of HCV genotype 1b
Description: Biological activity of the compounds of the invention was determined using an HCV replicon assay. The HCV 1b_Huh-Luc/Neo-ET cell line persistently expressing a bicistronic genotype 1b replicon in Huh 7 cells was obtained from ReBLikon GMBH. This cell line was used to test compound inhibition using luciferase enzyme activity readout as a measurement of compound inhibition of replicon levels.
On Day 1 (the day after plating), each compound is added in triplicate to the cells. Plates incubated for 72 h prior to running the luciferase assay. Enzyme activity was measured using a Bright-Glo Kit (cat. number E2620) manufactured by Promega Corporation. The following equation was used to generate a percent control value for each compound. % Control=(Average Compound Value/Average Control)*100
The EC50 value was determined using GraphPad Prism and the following equation: Y=Bottom+(Top−Bottom)/(1+10^((Log IC50−X)*HillSlope))
EC50 values of compounds are determined several times in the replicon assay.
Example compounds of the disclosed invention are illustrated in Tables 1-14 attached as appendices. The tables show inhibitory activity of many of the example compounds with respect to HCV 1b. […] The tables further provide mass spectrometry results for the synthesized example compounds.

| SMILES | EC50 [nM] |
| --- | --- |
| COC(=O)N[C@@H](C(=O)N1CCC[C@H]1c1ncc(-c2ccc(C#Cc3ccc(-c4cnc([C@@H]5CCCN5C(=O)[C@H](NC(=O)[C@@H]5CCCO5)c5ccccc5)[nH]4)cc3)cc2)[nH]1)c1ccccc1 [Compound 195] | < 1 |
| COC(=O)N[C@@H](C(=O)N1CCC[C@H]1c1ncc(-c2ccc(C#Cc3ccc(-c4cnc([C@@H]5CCCN5C(=O)Nc5ccccc5)[nH]4)cc3)cc2)[nH]1)c1ccccc1 [Compound 196] | 1 to 9.9 |
| COC(=O)N[C@@H](C(=O)N1CCC[C@H]1c1ncc(-c2ccc(C#Cc3ccc(-c4cnc([C@@H]5CCCN5C(=O)NCc5ccccc5)[nH]4)cc3)cc2)[nH]1)c1ccccc1 [Compound 197] | < 1 |
| COC(=O)N[C@@H](C(=O)N1CCC[C@H]1c1ncc(-c2ccc(C#Cc3ccc(-c4cnc([C@@H]5CCCN5C(=O)N5CCOCC5)[nH]4)cc3)cc2)[nH]1)c1ccccc1 [Compound 198] | < 1 |
| COC(=O)N[C@@H](C(=O)N1CCC[C@H]1c1ncc(-c2ccc(C#Cc3ccc(-c4cnc([C@@H]5CCCN5C(=O)OCc5ccccc5)[nH]4)cc3)cc2)[nH]1)c1ccccc1 [Compound 200] | < 1 |
| COC(=O)N[C@@H](C(=O)N1CCC[C@H]1c1ncc(-c2ccc(C#Cc3ccc(-c4cnc([C@@H]5CCCN5C(=O)[C@H](NC(=O)[C@H]5CCCO5)c5ccccc5)[nH]4)cc3)cc2)[nH]1)c1ccccc1 [Compound 201] | < 1 |
| COC(=O)N[C@@H](C(=O)N1CCC[C@H]1c1ncc(-c2ccc(C#Cc3ccc(-c4cnc([C@@H]5CCCN5C(=O)C5CCCN5C)[nH]4)cc3)cc2)[nH]1)c1ccccc1 (some centres unmarked) [Compound 202] | < 1 |
| COC(=O)N[C@@H](C(=O)N1CCC[C@H]1c1ncc(-c2ccc(C#Cc3ccc(-c4cnc([C@@H]5CCCN5C(=O)[C@H](NC(=O)[C@@H]5CCCN5C)c5ccccc5)[nH]4)cc3)cc2)[nH]1)c1ccccc1 [Compound 203] | < 1 |
| COC(=O)N[C@@H](C(=O)N1CCC[C@H]1c1ncc(-c2ccc(C#Cc3ccc(-c4cnc([C@@H]5CCCN5C(=O)[C@H](NC(=O)[C@H]5CCCN5C)c5ccccc5)[nH]4)cc3)cc2)[nH]1)c1ccccc1 [Compound 204] | < 1 |
| O=C([C@@H](c1ccccc1)N1CCCCC1)N1CCC[C@H]1c1ncc(-c2ccc(C#Cc3ccc(-c4cnc([C@@H]5CCCN5C(=O)[C@@H](c5ccccc5)N5CCCCC5)[nH]4)cc3)cc2)[nH]1 [Compound 205] | < 1 |
| COC(=O)N[C@@H](C(=O)N1CCC[C@H]1c1ncc(-c2ccc(C#Cc3ccc(-c4cnc([C@@H]5CCCN5C(=O)[C@H](NC(=O)[C@@H]5CCCN5)c5ccccc5)[nH]4)cc3)cc2)[nH]1)c1ccccc1 [Compound 206] | < 1 |
| COC(=O)N[C@@H](C(=O)N1CCC[C@H]1c1ncc(-c2ccc(C#Cc3ccc(-c4cnc([C@@H]5CCCN5C(=O)[C@H](NC(=O)[C@H]5CCCN5)c5ccccc5)[nH]4)cc3)cc2)[nH]1)c1ccccc1 [Compound 207] | < 1 |
| O=C(N[C@@H](C(=O)N1CCC[C@H]1c1ncc(-c2ccc(C#Cc3ccc(-c4cnc([C@@H]5CCCN5C(=O)[C@@H](c5ccccc5)N5CCCCC5)[nH]4)cc3)cc2)[nH]1)c1ccccc1)C1CC1 [Compound 208] | < 1 |
| O=C(N[C@@H](C(=O)N1CCC[C@H]1c1ncc(-c2ccc(C#Cc3ccc(-c4cnc([C@@H]5CCCN5C(=O)[C@@H](c5ccccc5)N5CCCCC5)[nH]4)cc3)cc2)[nH]1)c1ccccc1)N1CCOCC1 [Compound 209] | < 1 |
| CC(C)(C)OC(=O)N[C@@H](C(=O)N1CCC[C@H]1c1cc(-c2ccc(C#Cc3ccc(-c4cnc([C@@H]5CCCN5C(=O)[C@H](NC(=O)OC(C)(C)C)c5ccccc5)[nH]4)cc3)cc2)n[nH]1)c1ccccc1 [Compound 210] | < 1 |
| COC(=O)N[C@@H](C(=O)N1CCC[C@H]1CNC(=O)c1ccc(C#Cc2ccc(-c3cnc([C@@H]4CCCN4C(=O)[C@H](NC(=O)OC)c4ccccc4)[nH]3)cc2)cc1)c1ccccc1 [Compound 211] | < 1 |
| O=C(N[C@@H](C(=O)N1CCC[C@H]1c1cc(-c2ccc(C#Cc3ccc(-c4cnc([C@@H]5CCCN5C(=O)[C@H](NC(=O)C5CC5)c5ccccc5)[nH]4)cc3)cc2)n[nH]1)c1ccccc1)C1CC1 [Compound 212] | < 1 |
| CN1CCN(C(=O)N[C@@H](C(=O)N2CCC[C@H]2c2cc(-c3ccc(C#Cc4ccc(-c5cnc([C@@H]6CCCN6C(=O)[C@H](NC(=O)N6CCN(C)CC6)c6ccccc6)[nH]5)cc4)cc3)n[nH]2)c2ccccc2)CC1 [Compound 213] | < 1 |
| O=C(N[C@@H](C(=O)N1CCC[C@H]1c1cc(-c2ccc(C#Cc3ccc(-c4cnc([C@@H]5CCCN5C(=O)[C@H](NC(=O)[C@@H]5CCCO5)c5ccccc5)[nH]4)cc3)cc2)n[nH]1)c1ccccc1)[C@@H]1CCCO1 [Compound 214] | < 1 |

| SMILES | EC50 [nM] |
| --- | --- |
| CN(C)[C@@H](C(=O)N1CCC[C@H]1c1ncc(-c2ccc(C#Cc3ccc(-c4cnc([C@@H]5CCCN5C(=O)[C@H](NC(=O)C5CC5)c5ccccc5)[nH]4)cc3)cc2)[nH]1)c1ccccc1 [Compound 215] | < 1 |
| CN1CCC[C@@H]1C(=O)N[C@@H](C(=O)N1CCC[C@H]1c1ncc(-c2ccc(C#Cc3ccc(-c4cnc([C@@H]5CCCN5C(=O)[C@H](NC(=O)C5CC5)c5ccccc5)[nH]4)cc3)cc2)[nH]1)c1ccccc1 [Compound 216] | < 1 |
| O=C(N[C@@H](C(=O)N1CCC[C@H]1c1ncc(-c2ccc(C#Cc3ccc(-c4cnc([C@@H]5CCCN5C(=O)[C@@H](c5ccccc5)N5CCCC5)[nH]4)cc3)cc2)[nH]1)c1ccccc1)C1CC1 [Compound 217] | < 1 |
| COC(=O)N[C@@H](C(=O)N1CCC[C@H]1c1ncc(-c2ccc(C#Cc3ccc(-c4cnc([C@@H]5CCCN5C(=O)[C@H](NC(=O)C5CC5)c5ccccc5)[nH]4)cc3)cc2)[nH]1)c1ccccc1 [Compound 218] | < 1 |
| COC(=O)N[C@@H](C(=O)N1CCC[C@H]1c1cc(-c2ccc(C#Cc3ccc(-c4cnc([C@@H]5CCCN5C(=O)[C@H](NC(=O)OC)c5ccccc5)[nH]4)cc3)cc2)n[nH]1)c1ccccc1 [Compound 219] | < 1 |
| O=C(N[C@@H](C(=O)N1CCC[C@H]1c1cc(-c2ccc(C#Cc3ccc(-c4cnc([C@@H]5CCCN5C(=O)[C@H](NC(=O)N5CCOCC5)c5ccccc5)[nH]4)cc3)cc2)n[nH]1)c1ccccc1)N1CCOCC1 [Compound 220] | < 1 |
| CN(C)C(=O)N[C@@H](C(=O)N1CCC[C@H]1c1cc(-c2ccc(C#Cc3ccc(-c4cnc([C@@H]5CCCN5C(=O)[C@H](NC(=O)N(C)C)c5ccccc5)[nH]4)cc3)cc2)n[nH]1)c1ccccc1 [Compound 221] | < 1 |
| O=C(Cc1cccnc1)N[C@@H](C(=O)N1CCC[C@H]1c1cc(-c2ccc(C#Cc3ccc(-c4cnc([C@@H]5CCCN5C(=O)[C@H](NC(=O)Cc5cccnc5)c5ccccc5)[nH]4)cc3)cc2)n[nH]1)c1ccccc1 [Compound 222] | < 1 |
| COC(=O)N[C@@H](C(=O)N1CCC[C@H]1c1ncc(-c2ccc(C#Cc3ccc(-c4cnc([C@@H]5CCCN5C(=O)[C@H](NC(=O)N5CCOCC5)c5ccccc5)[nH]4)cc3)cc2)[nH]1)c1ccccc1 [Compound 224] | < 1 |
| COC(=O)N[C@@H](C(=O)N1CCC[C@H]1c1ncc(-c2ccc(C#Cc3ccc(-c4cnc([C@@H]5CCCN5C(=O)[C@H](NS(C)(=O)=O)c5ccccc5)[nH]4)cc3)cc2)[nH]1)c1ccccc1 [Compound 225] | < 1 |
| CS(=O)(=O)N[C@@H](C(=O)N1CCC[C@H]1c1ncc(-c2ccc(C#Cc3ccc(-c4cnc([C@@H]5CCCN5C(=O)[C@H](NS(C)(=O)=O)c5ccccc5)[nH]4)cc3)cc2)[nH]1)c1ccccc1 [Compound 226] | < 1 |
| CC(C)OC(=O)N[C@@H](C(=O)N1CCC[C@H]1c1ncc(-c2ccc(C#Cc3ccc(-c4cnc([C@@H]5CCCN5C(=O)[C@H](NC(=O)OC(C)C)c5ccccc5)[nH]4)cc3)cc2)[nH]1)c1ccccc1 [Compound 227] | < 1 |
| CN(C)[C@@H](C(=O)N1CCC[C@H]1c1ncc(-c2ccc(C#Cc3ccc(-c4cnc([C@@H]5CCCN5C(=O)[C@H](NS(C)(=O)=O)c5ccccc5)[nH]4)cc3)cc2)[nH]1)c1ccccc1 [Compound 228] | < 1 |
| CCN(CC)[C@@H](C(=O)N1CCC[C@H]1c1ncc(-c2ccc(C#Cc3ccc(-c4cnc([C@@H]5CCCN5C(=O)[C@H](NS(C)(=O)=O)c5ccccc5)[nH]4)cc3)cc2)[nH]1)c1ccccc1 [Compound 229] | < 1 |
| CS(=O)(=O)N[C@@H](C(=O)N1CCC[C@H]1c1ncc(-c2ccc(C#Cc3ccc(-c4cnc([C@@H]5CCCN5C(=O)[C@@H](c5ccccc5)N5CCCC5)[nH]4)cc3)cc2)[nH]1)c1ccccc1 [Compound 230] | < 1 |
| CS(=O)(=O)N[C@@H](C(=O)N1CCC[C@H]1c1ncc(-c2ccc(C#Cc3ccc(-c4cnc([C@@H]5CCCN5C(=O)[C@@H](c5ccccc5)N5CCCCC5)[nH]4)cc3)cc2)[nH]1)c1ccccc1 [Compound 231] | < 1 |
| CS(=O)(=O)N[C@@H](C(=O)N1CCC[C@H]1c1ncc(-c2ccc(C#Cc3ccc(-c4cnc([C@@H]5CCCN5C(=O)[C@@H](c5ccccc5)N5CCOCC5)[nH]4)cc3)cc2)[nH]1)c1ccccc1 [Compound 232] | < 1 |
| COC(=O)N[C@@H](C(=O)N1CCC[C@H]1c1ncc(-c2ccc(C#Cc3ccc(C(=O)NC[C@@H]4CCCN4C(=O)[C@@H](c4ccccc4)N4CCCCC4)cc3)cc2)[nH]1)c1ccccc1 [Compound 233] | < 1 |
| COC(=O)N[C@@H](C(=O)N1CCC[C@H]1c1ncc(-c2ccc(C#Cc3ccc(C(=O)NC[C@@H]4CCCN4C(=O)[C@@H](c4ccccc4)N(C)C)cc3)cc2)[nH]1)c1ccccc1 [Compound 234] | < 1 |
